pIC50: −log10 of the molar value. Blank lines part the entries; values can stand above or below the compound they belong to. Calls of active or inactive are those of the source. The rule behind the calls is not given here.
Columns and labels:
[1] = Inhibition of TrxR (unknown origin) incubated for 2 hrs in presence of NADPH by DTNB assay; set-up: species or system Homo sapiens
[2] = test system: HeLa; test: Cytotoxicity against human HeLa cells incubated for 24 to 48 hrs by MTT assay; format: functional, cell-based
[3] = test system: HepG2; test: Cytotoxicity against human HepG2 cells incubated for 24 to 48 hrs by MTT assay; format: functional, cell-based
[4] = test system: A549; test: Cytotoxicity against human A549 cells incubated for 24 to 48 hrs by MTT assay; format: functional, cell-based
[5] = organism: Homo sapiens; test: Inhibition of TrxR (unknown origin) assessed as remaining activity at 50 uM incubated for 2 hrs in presence of NADPH by DTNB assay relative to control
[6] = organism: Homo sapiens; test: Inhibition of TrxR U498C mutant (unknown origin) incubated for 2 hrs in presence of NADPH by DTNB assay
[7] = GSH reactivity in TE buffer assessed as remaining concentration of compound incubated 1 to 4 hrs at 37 degreeC by HPLC analysis; format: physicochemical; conditions: TE buffer with GSH, time 1-4 hrs, read-out: Stability
[8] = Cys reactivity in TE buffer assessed as remaining concentration of compound incubated 1 to 4 hrs at 37 degreeC by HPLC analysis; format: physicochemical; conditions: TE buffer with cysteine, time 1-4 hrs, read-out: Activity
[9] = test system: A549; test: Induction of ROS accumulation in human A549 cells assessed as increase in fluorescence intensity incubated for 6 hrs by DCFH-DA/DHE staining based analysis; format: functional, cell-based; conditions: dose 1-5 µM
[10] = test system: A549; test: Induction of oxidative stress in human A549 cells assessed as increase in GSSG levels at 1 to 5 uM incubated for 24 hrs by microplate reader analysis; format: functional, cell-based; conditions: dose 1-5 µM
[11] = test system: A549; test: Induction of oxidative stress in human A549 cells assessed as decrease in GSH/GSSG ratio at 1 to 5 uM incubated for 24 hrs by microplate reader analysis; format: functional, cell-based; conditions: dose 1-5 µM
[12] = test system: A549; test: Induction of oxidative stress in human A549 cells assessed as decrease in intracellular total thiol levels at 5 uM incubated for 24 hrs by DTNB titration based microplate reader analysis relative to control; format: functional; set-up: scale not given: the % may be the effect or the level left
[13] = test system: A549; test: Induction of apoptosis in human A549 cells assessed as increase in blue fluorescence at 1 to 5 uM incubated for 24 hrs by Hoechst 33342 staining based fluorescence microscopic analysis; format: functional, cell-based; conditions: dose 1-5 µM
[14] = test system: A549; test: Induction of apoptosis in human A549 cells assessed as increase in caspase 3 activation incubated for 24 hrs by colorimetric assay; format: functional, cell-based; conditions: dose 1-5 µM
[15] = test system: A549; test: Induction of apoptosis in human A549 cells assessed as apoptotic cell count incubated for 6 hrs by annexin V-FITC and PI staining based flow cytometric analysis; format: functional; conditions: dose 1-5 µM
[16] = test system: A549; test: Induction of apoptosis in human A549 cells assessed as decrease in Bcl-2 protein expression at 2 to 5 uM incubated for 24 hrs by Western blot analysis; format: functional, cell-based; conditions: dose 2-5 µM
[17] = test system: A549; test: Induction of apoptosis in human A549 cells assessed as increase in Bax protein expression at 2 to 5 uM incubated for 24 hrs by Western blot analysis; format: functional, cell-based; conditions: dose 2-5 µM
[18] = Inhibition of TrxR in human A549 cells incubated for 24 hrs by endpoint insulin reduction assay; format: cell-based
[19] = test system: A549; test: Inhibition of TrxR in human A549 cells assessed as decrease in green fluorescence intensity incubated for 24 hrs by TRFS-green staining based fluorescent microscopic analysis; format: cell-based; conditions: dose 1-5 µM
[20] = test system: A549; test: Induction of apoptosis in human A549 cells assessed as conversion of caspase 3 to cleaved caspase 3 at 2 to 5 uM incubated for 24 hrs by Western blot analysis; format: functional, cell-based; conditions: dose 2-5 µM
[21] = test system: A549; test: Induction of oxidative stress in human A549 cells assessed as activation of ERK pathway by measuring change in protein level incubated for 24 hrs; format: functional, cell-based
[22] = test system: A549; test: Inhibition of colony formation in human A549 cells assessed as decrease in number of colonies incubated for 1 day in 5% CO2 at 37 degC followed by replacement with fresh culture medium for every 2 days and measured after 10 days by crystal violet staining based analysis; format: functional, cell-based; conditions: dose 0.25-0.5 µM
[23] = Cytotoxicity against human LO2 cells assessed as cell viability at 1 to 20 uM incubated for 24 hrs by MTT assay; format: toxicity, cell-based, L02
[24] = test system: A549; test: Antitumor activity against human A549 cells xenografted in male BALB/c nude mouse assessed as tumor growth inhibition at 3 to 6 mg/kg, ip administrated for every 3 days and measured after 21 days relative to control; format: functional; conditions: dose 3-6 mg/kg, time 21 day
[25] = test system: A549; test: Antitumor activity against ip dosed human A549 cells xenografted in male BALB/c nude mouse assessed as tumor size administered and measured every 3 days for 21 days; format: functional, organism-based; conditions: dose 3-6 mg/kg, time 21.0 day
[26] = test system: A549; test: Antitumor activity against ip dosed human A549 cells xenografted in male BALB/c nude mouse assessed as tumor weight administered and measured every 3 days for 21 days; format: functional, organism-based; conditions: dose 3-6 mg/kg, time 21.0 day
[27] = Toxicity in male BALB/c nude mouse xenografted with human A549 cells assessed as effect on body weight 3 to 6 mg/kg, ip administered and measured every 3 days for 21 days; format: organism-based; conditions: in vivo, 504 h, dose 3-6 mg/kg, time 21 day
[28] = Half life in Sprague-Dawley rat at 10 mg/kg, po measured up to 24 hrs by LC-MS/MS analysis; format: ADME, organism-based; conditions: in vivo
[29] = Tmax in Sprague-Dawley rat at 10 mg/kg, po measured up to 24 hrs by LC-MS/MS analysis; format: ADME, organism-based; conditions: in vivo
[30] = AUC (0 to 24 hrs) in Sprague-Dawley rat at 10 mg/kg, po measured up to 24 hrs by LC-MS/MS analysis; format: ADME, organism-based; conditions: in vivo
[31] = Toxicity in male BALB/c nude mouse xenografted with human A549 cells assessed as effect on heart at 3 to 6 mg/kg, ip administered for 21 days; format: organism-based; conditions: in vivo, 504 h, dose 3-6 mg/kg, time 21 day
[32] = Toxicity in male BALB/c nude mouse xenografted with human A549 cells assessed as effect on liver at 3 to 6 mg/kg, ip administered for 21 days; format: organism-based; conditions: in vivo, 504 h, dose 3-6 mg/kg, time 21 day
[33] = Toxicity in male BALB/c nude mouse xenografted with human A549 cells assessed as effect on lung at 3 to 6 mg/kg, ip administered for 21 days; format: organism-based; conditions: in vivo, 504 h, dose 3-6 mg/kg, time 21 day
[34] = Toxicity in male BALB/c nude mouse xenografted with human A549 cells assessed as effect on kidney at 3 to 6 mg/kg, ip administered for 21 days; format: organism-based; conditions: in vivo, 504 h, dose 3-6 mg/kg, time 21 day
[35] = Toxicity in male BALB/c nude mouse xenografted with human A549 cells assessed as effect on spleen at 3 to 6 mg/kg, ip administered for 21 days; format: organism-based; conditions: in vivo, 504 h, dose 3-6 mg/kg, time 21 day
[36] = test system: A549; test: Cytotoxicity against human A549 cells assessed as cell viability at 1 to 20 uM cotreated with BSO incubated for 24 hrs by MTT assay; format: functional, cell-based; conditions: dose 1-20 µM
[37] = test system: A549; test: Cytotoxicity against human A549 cells assessed as cell viability at 1 to 20 uM cotreated with NAC incubated for 24 hrs by MTT assay; format: functional, cell-based; conditions: dose 1-20 µM
[38] = test system: HeLa; test: Cytotoxicity against human HeLa cells harboring shNT-negative control assessed as cell viability at 1 to 5 uM incubated for 48 hrs by MTT assay; format: functional, cell-based; conditions: dose 1-5 µM
[39] = test system: HeLa; test: Cytotoxicity against human HeLa cells harboring shTrxR1 assessed as cell viability at 1 to 5 uM incubated for 48 hrs by MTT assay; format: functional, cell-based; conditions: dose 1-5 µM
[40] = test system: A549; test: Induction of apoptosis in human A549 cells assessed as small and condensed nuclei at 1 to 5 uM incubated for 24 hrs by Hoechst 33342 staining based fluorescence microscopic analysis; format: functional, cell-based; conditions: dose 1-5 µM

Structure (SMILES): C[n+]1cc2ccccc2c2cc(F)ccc21
pIC50 [1]: < 4.30 | pIC50 [2]: 4.50 | pIC50 [3]: 4.46 | pIC50 [4]: < 4.30

Structure (SMILES): CN1Cc2ccccc2-c2ccc3ccccc3c21
pIC50 [2]: < 4.30 | pIC50 [3]: < 4.30 | pIC50 [4]: < 4.30 | Activity [5]: 97%

Structure (SMILES): c1ccc2c(c1)cnc1ccccc12 [PHENANTHRIDINE]
pIC50 [1]: < 4.30 | pIC50 [2]: < 4.30 | pIC50 [3]: < 4.30 | pIC50 [4]: < 4.30

Structure (SMILES): Fc1ccc2ncc3ccccc3c2c1
pIC50 [1]: < 4.30 | pIC50 [2]: < 4.30 | pIC50 [3]: < 4.30 | pIC50 [4]: < 4.30

Structure (SMILES): c1ccc2c(c1)cnc1c3ccccc3ccc21
pIC50 [2]: < 4.30 | pIC50 [3]: < 4.30 | pIC50 [4]: < 4.30 | Activity [5]: 93%

Structure (SMILES): Cc1ccc2ncc3ccccc3c2c1
pIC50 [1]: < 4.30 | pIC50 [2]: < 4.30 | pIC50 [3]: < 4.30 | pIC50 [4]: < 4.30

Structure (SMILES): C[n+]1cc2ccccc2c2ccccc21
pIC50 [1]: < 4.30 | pIC50 [2]: 4.55 | pIC50 [3]: 4.49 | pIC50 [4]: 4.45

Structure (SMILES): COc1ccc2c(c[n+](C)c3c4cc5c(cc4ccc23)OCO5)c1OC [CHELERYTHRINE CHLORIDE]
pIC50 [1]: 4.83 | pIC50 [2]: 5.02 | pIC50 [3]: 5.08 | pIC50 [4]: 5.10

Structure (SMILES): COc1ccc2ncc3ccccc3c2c1
pIC50 [1]: < 4.30 | pIC50 [2]: < 4.30 | pIC50 [3]: < 4.30 | pIC50 [4]: < 4.30

The next lines start with results.

Activity [5]: 64%
Structure (SMILES): C[n+]1cc2ccccc2c2ccc3ccccc3c21
pIC50 [2]: 5.28 | pIC50 [3]: 5.27 | pIC50 [4]: 5.14

pIC50 [1]: < 4.30
Structure (SMILES): Cc1ccc2c(c1)c1ccccc1c[n+]2C
pIC50 [2]: 4.91 | pIC50 [3]: 4.82 | pIC50 [4]: 4.73

pIC50 [1]: 4.64
Structure (SMILES): C[n+]1cc2c3c(ccc2c2ccc4cc5c(cc4c21)OCO5)OCO3 [SANGUINARIUM CHLORIDE]
pIC50 [2]: 5.62 | pIC50 [3]: 5.59 | pIC50 [4]: 5.16

pIC50 [1]: 4.99 | inhibition [6]: Active; Minimal Inhibition Was Observed | remaining at 50 µM [7]: 94% | remaining at 50 µM [8]: 102% | pIC50 [18]: 5.40 | half-life [28]: 2.58 h | Tmax [29]: 2 h | AUC [30]: 1060 ng·h/mL
Structure (SMILES): COc1cc(OC)c2c3ccccc3c[n+](C)c2c1.[I-]
pIC50 [2]: 5.47 | pIC50 [3]: 5.30 | pIC50 [4]: 5.68 | Activity [9]: Dose-dependent-effect | Activity [10]: Active | Activity [11]: inactive | Activity [12]: ~50% | Activity [13]: Active | Activity [14]: Dose-dependent-effect | Activity [15]: Dose-dependent-effect | Activity [16]: Dose-dependent-effect | Activity [17]: Dose-dependent-effect | inhibition [19]: Dose-dependent-effect | Activity [20]: Dose-dependent-effect | Activity [21]: Active | inhibition [22]: Dose-dependent-effect | IC50 at 24 h [23]: > 20 µM | TGI [24]: 65.49% | Activity [25]: Dose-dependent-effect | Activity [26]: Dose-dependent-effect | Activity [27]: Non-toxic | Activity [31]: Non-toxic | Activity [32]: Non-toxic | Activity [33]: Non-toxic | Activity [34]: Non-toxic | Activity [35]: Non-toxic | Activity [36]: Active | Activity [37]: inactive | Activity [38]: Active | Activity [39]: Active; Compound Exhibited Increased Sensitivity Compared To Hela-Shnt Cells (Negative Control) | Activity [40]: Active

pIC50 [1]: 4.42 | pIC50 [18]: 4.92
Structure (SMILES): COc1cc2c[n+](C)c3c4cc5c(cc4ccc3c2cc1OC)OCO5 [NITIDINE CHLORIDE]
pIC50 [2]: 5.77 | pIC50 [3]: 5.74 | pIC50 [4]: 5.40

pIC50 [1]: < 4.30
Structure (SMILES): COc1cc(OC)c2c(c1)ncc1ccccc12
pIC50 [2]: < 4.30 | pIC50 [3]: < 4.30 | pIC50 [4]: < 4.30

pIC50 [1]: < 4.30
Structure (SMILES): COc1cc2c(c(OC)c1OC)c1ccccc1c[n+]2C
pIC50 [2]: 4.65 | pIC50 [3]: 4.66 | pIC50 [4]: 4.77

pIC50 [1]: < 4.30
Structure (SMILES): COc1cc2ncc3ccccc3c2c(OC)c1OC
pIC50 [2]: < 4.30 | pIC50 [3]: < 4.30 | pIC50 [4]: < 4.30

pIC50 [1]: < 4.30
Structure (SMILES): COc1ccc2c(c1)c1ccccc1c[n+]2C
pIC50 [2]: 4.71 | pIC50 [3]: 4.71 | pIC50 [4]: 4.75

— ChEMBL document CHEMBL6182868, “Structural simplification of quaternary benzophenanthridine alkaloids generating a candidate for the treatment of non-small cell lung cancer” (Eur J Med Chem, 2025)
